# Legend:
# Assay in all cases: relative viability (nuclei count vs DMSO), 5 days (fraction); higher = more cells survive
# [1] = system: Calu-6
# Method in brief: (§1)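 Each reported value is a median over duplicate plates. It expresses relative viability: treated-well nuclei count divided by vehicle-well nuclei count. Lung cancer cell lines in 1536-well plates were dosed by pin tool a day after seeding, alone with one drug or with a fixed anchor-drug dose plus five library-drug doses (not always all listed) in √10 steps, and nuclei were counted after 5 days.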
# [2] = system: EBC-1
# Method in brief: as §1
# [3] = system: HCC-366
# Method in brief: as §1
# [4] = system: HCC-44
# Method in brief: as §1
# [5] = system: IA-LM
# Method in brief: as §1
# [6] = system: NCI-H1299
# Method in brief: as §1
# [7] = system: NCI-H1437
# Method in brief: as §1
# [8] = system: NCI-H1703
# Method in brief: as §1
compound,measurement,setting,value
C=C1C(=O)O[C@@H](CCCCCCCC)[C@@H]1C(=O)O [C-75] + CC(C)C[C@H](NC(=O)[C@H](Cc1ccccc1)NC(=O)c1cnccn1)B(O)O [Bortezomib] (partner 0.002 µM),relative viability,[1]; first compound 0.08 µM,1.01
same,relative viability,[1]; first compound 0.253 µM,1.16
same,relative viability,[1]; first compound 0.8 µM,1.02
same,relative viability,[1]; first compound 2.53 µM,0.92
same,relative viability,[1]; first compound 8 µM,0.855
same,relative viability,[2]; first compound 0.08 µM,0.57
same,relative viability,[2]; first compound 0.253 µM,0.512
same,relative viability,[2]; first compound 0.8 µM,0.498
same,relative viability,[2]; first compound 2.53 µM,0.505
same,relative viability,[2]; first compound 8 µM,0.221
same,relative viability,[3]; first compound 0.08 µM,1.07
same,relative viability,[3]; first compound 0.253 µM,1.16
same,relative viability,[3]; first compound 0.8 µM,0.973
same,relative viability,[3]; first compound 8 µM,0.941
same,relative viability,[4]; first compound 0.08 µM,0.885
same,relative viability,[4]; first compound 0.253 µM,0.863
same,relative viability,[4]; first compound 0.8 µM,0.857
same,relative viability,[4]; first compound 2.53 µM,0.714
same,relative viability,[4]; first compound 8 µM,0.89
same,relative viability,[5]; first compound 0.08 µM,0.79
same,relative viability,[5]; first compound 0.253 µM,0.61
same,relative viability,[5]; first compound 0.8 µM,0.728
same,relative viability,[5]; first compound 2.53 µM,0.736
same,relative viability,[5]; first compound 8 µM,0.428
same,relative viability,[6]; first compound 0.08 µM,1.07
same,relative viability,[6]; first compound 0.253 µM,0.932
same,relative viability,[6]; first compound 0.8 µM,1.01
same,relative viability,[6]; first compound 2.53 µM,1.02
same,relative viability,[6]; first compound 8 µM,1.07
same,relative viability,[7]; first compound 0.08 µM,0.572
same,relative viability,[7]; first compound 0.253 µM,0.546
same,relative viability,[7]; first compound 0.8 µM,0.483
same,relative viability,[7]; first compound 2.53 µM,0.546
same,relative viability,[7]; first compound 8 µM,0.455
same,relative viability,[8]; first compound 0.08 µM,0.506
same,relative viability,[8]; first compound 0.253 µM,0.435
same,relative viability,[8]; first compound 0.8 µM,0.31
same,relative viability,[8]; first compound 2.53 µM,0.292
same,relative viability,[8]; first compound 8 µM,0.192
CC1(C)CCC(c2ccc(Cl)cc2)=C(CN2CCN(c3ccc(C(=O)NS(=O)(=O)c4ccc(N[C@H](CCN5CCOCC5)CSc5ccccc5)c(S(=O)(=O)C(F)(F)F)c4)cc3)CC2)C1 [Navitoclax] + CC(C)C[C@H](NC(=O)[C@H](Cc1ccccc1)NC(=O)c1cnccn1)B(O)O [Bortezomib] (partner 0.002 µM),relative viability,[1]; first compound 0.005 µM,0.999
same,relative viability,[1]; first compound 0.01581 µM,1.16
same,relative viability,[1]; first compound 0.05 µM,1.13
same,relative viability,[1]; first compound 0.1581 µM,0.972
same,relative viability,[1]; first compound 0.5 µM,0.877
same,relative viability,[2]; first compound 0.005 µM,0.614
same,relative viability,[2]; first compound 0.01581 µM,0.649
same,relative viability,[2]; first compound 0.05 µM,0.575
same,relative viability,[2]; first compound 0.1581 µM,0.616
same,relative viability,[2]; first compound 0.5 µM,0.383
same,relative viability,[3]; first compound 0.005 µM,1
same,relative viability,[3]; first compound 0.01581 µM,1.06
same,relative viability,[3]; first compound 0.05 µM,0.539
same,relative viability,[3]; first compound 0.1581 µM,0.974
same,relative viability,[3]; first compound 0.5 µM,1.04
same,relative viability,[4]; first compound 0.005 µM,0.859
same,relative viability,[4]; first compound 0.01581 µM,0.912
same,relative viability,[4]; first compound 0.05 µM,0.859
same,relative viability,[4]; first compound 0.1581 µM,0.927
same,relative viability,[4]; first compound 0.5 µM,0.882
same,relative viability,[5]; first compound 0.005 µM,0.926
same,relative viability,[5]; first compound 0.01581 µM,0.818
same,relative viability,[5]; first compound 0.05 µM,0.824
same,relative viability,[5]; first compound 0.1581 µM,0.896
same,relative viability,[5]; first compound 0.5 µM,0.747
same,relative viability,[6]; first compound 0.005 µM,1.04
same,relative viability,[6]; first compound 0.01581 µM,1.12
same,relative viability,[6]; first compound 0.05 µM,1.01
same,relative viability,[6]; first compound 0.1581 µM,1.05
same,relative viability,[6]; first compound 0.5 µM,1.02
same,relative viability,[7]; first compound 0.005 µM,0.503
same,relative viability,[7]; first compound 0.01581 µM,0.589
same,relative viability,[7]; first compound 0.05 µM,0.589
same,relative viability,[7]; first compound 0.1581 µM,0.495
same,relative viability,[7]; first compound 0.5 µM,0.47
same,relative viability,[8]; first compound 0.005 µM,0.214
same,relative viability,[8]; first compound 0.01581 µM,0.275
same,relative viability,[8]; first compound 0.05 µM,0.313
same,relative viability,[8]; first compound 0.1581 µM,0.65
same,relative viability,[8]; first compound 0.5 µM,0.224
Oc1nc(-c2ccc(C(F)(F)F)cc2)nc2c1CSCC2 [XAV939] + CC(C)C[C@H](NC(=O)[C@H](Cc1ccccc1)NC(=O)c1cnccn1)B(O)O [Bortezomib] (partner 0.002 µM),relative viability,[1]; first compound 0.08 µM,0.936
same,relative viability,[1]; first compound 0.253 µM,0.978
same,relative viability,[1]; first compound 0.8 µM,1.05
same,relative viability,[1]; first compound 2.53 µM,0.978
same,relative viability,[2]; first compound 0.08 µM,0.589
same,relative viability,[2]; first compound 0.253 µM,0.478
same,relative viability,[2]; first compound 0.8 µM,0.584
same,relative viability,[2]; first compound 2.53 µM,0.476
same,relative viability,[3]; first compound 0.08 µM,1.12
same,relative viability,[3]; first compound 0.253 µM,0.991
same,relative viability,[3]; first compound 0.8 µM,1.01
same,relative viability,[3]; first compound 2.53 µM,1.05
same,relative viability,[4]; first compound 0.08 µM,0.909
same,relative viability,[4]; first compound 0.253 µM,0.809
same,relative viability,[4]; first compound 0.8 µM,0.854
same,relative viability,[4]; first compound 2.53 µM,0.824
same,relative viability,[5]; first compound 0.08 µM,0.736
same,relative viability,[5]; first compound 0.253 µM,0.617
same,relative viability,[5]; first compound 0.8 µM,0.607
same,relative viability,[5]; first compound 2.53 µM,0.487
same,relative viability,[6]; first compound 0.08 µM,1.06
same,relative viability,[6]; first compound 0.253 µM,0.996
same,relative viability,[6]; first compound 0.8 µM,1.07
same,relative viability,[6]; first compound 2.53 µM,1.05
same,relative viability,[7]; first compound 0.08 µM,0.641
same,relative viability,[7]; first compound 0.253 µM,0.548
same,relative viability,[7]; first compound 0.8 µM,0.512
same,relative viability,[7]; first compound 2.53 µM,0.376
same,relative viability,[8]; first compound 0.08 µM,0.451
same,relative viability,[8]; first compound 0.253 µM,0.417
same,relative viability,[8]; first compound 0.8 µM,0.293
same,relative viability,[8]; first compound 2.53 µM,0.285

# Reference: the supplement of paper PMC10307832
